Structures are written as SMILES.

The term IC50 denotes the midpoint of a concentration-inhibition curve. A lower IC50 goes with higher potency.

One assay concerns the target FBXL10 (Homo sapiens (Human), UniProt Q8NHM5). As to the kind of experiment: FBXL10 in vitro enzyme inhibition assay (AlphaScreen). Type of assay: biochemical. The protocol: Reaction product was determined quantitatively by AlphaScreen detection after the addition of detection reagents anti-H3K36me1 antibody, AlphaScreen® Streptavidin-coated Donor beads, and AlphaScreen® Protein A Acceptor beads in 50 mM HEPES, pH7.3, 10 mM NaCl, 0.005% Brij35, 5 mM EDTA, 2 mg/ml BSA to final 10 μg/ml beads.
Plates were incubated at room temperature for 40 minutes, followed by addition of 3 μl of 50 μg/ml AlphaScreen® Streptavidin-coated Donor beads and AlphaScreen® Protein A Acceptor beads in 50 mM HEPES, pH7.3, 10 mM NaCl, 0.005% Brij35, 5 mM EDTA, 2 mg/ml BSA. Plates were read by EnVisionMultilabel Reader in AlphaScreen mode after a minimum of 2 hour or up to overnight incubation at room temperature. The AlphaScreen signal for each well was used to determine inhibition constant (IC50).
Background: Alpha assays give light when donor and acceptor beads are brought close together.

The next assay deals with JMJD2C (Homo sapiens (Human), UniProt Q9H3R0). As to the kind of experiment: JMJD2C in vitro enzyme inhibition assay (TR-FRET). The class given is biochemical. For orientation: Time-resolved FRET reads energy transfer from a long-lived donor to a nearby acceptor.
JMJD2C, sequence (Q9H3R0 2-372): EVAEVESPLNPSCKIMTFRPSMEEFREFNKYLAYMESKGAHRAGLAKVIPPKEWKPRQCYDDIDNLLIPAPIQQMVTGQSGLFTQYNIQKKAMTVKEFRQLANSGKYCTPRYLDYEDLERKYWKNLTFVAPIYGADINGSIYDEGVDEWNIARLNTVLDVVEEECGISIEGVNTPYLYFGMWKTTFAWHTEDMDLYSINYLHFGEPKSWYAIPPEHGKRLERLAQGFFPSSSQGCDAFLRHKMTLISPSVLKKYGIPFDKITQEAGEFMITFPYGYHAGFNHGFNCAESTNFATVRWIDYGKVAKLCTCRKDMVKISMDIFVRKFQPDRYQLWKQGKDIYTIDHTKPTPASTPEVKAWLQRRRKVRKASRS

FBXL10, sequence (Q8NHM5 1-650): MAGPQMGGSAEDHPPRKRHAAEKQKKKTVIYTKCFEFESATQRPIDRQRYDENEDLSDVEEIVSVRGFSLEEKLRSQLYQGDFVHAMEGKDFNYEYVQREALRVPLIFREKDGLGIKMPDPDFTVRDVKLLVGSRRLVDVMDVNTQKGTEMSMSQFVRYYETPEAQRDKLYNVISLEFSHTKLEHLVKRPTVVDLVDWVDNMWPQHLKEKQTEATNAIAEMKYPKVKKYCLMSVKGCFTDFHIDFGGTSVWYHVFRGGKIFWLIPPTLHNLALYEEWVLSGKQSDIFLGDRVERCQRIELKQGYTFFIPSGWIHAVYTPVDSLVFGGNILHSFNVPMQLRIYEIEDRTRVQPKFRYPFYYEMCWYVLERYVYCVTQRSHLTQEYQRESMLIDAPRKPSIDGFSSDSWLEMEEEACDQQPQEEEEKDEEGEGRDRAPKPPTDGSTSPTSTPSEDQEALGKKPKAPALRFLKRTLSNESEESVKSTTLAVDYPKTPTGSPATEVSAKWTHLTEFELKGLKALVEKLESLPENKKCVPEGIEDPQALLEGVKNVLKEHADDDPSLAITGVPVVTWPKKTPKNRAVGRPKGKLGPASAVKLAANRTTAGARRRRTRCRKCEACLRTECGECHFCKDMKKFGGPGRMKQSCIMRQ

On to `Fc1ccc(-c2c(-c3cc(-c4nn[nH]n4)ccn3)ncn2Cc2cccc(Cl)c2)c(OCC2CC2)c1` [Example 169, 2-(1-(3-chlorobenzyl)-5-(2-(cyclopropylmethoxy)-4-fluorophenyl)-1H-imidazol-4-yl)-4-(2H-tetrazol-5-yl)pyridine], for which the IC50 against FBXL10 lay in the range of 100 to 1000 nM; on JMJD2C it was 1000 to 10000 nM. Taken in the same sequence, the figures for `O=C(O)c1ccnc(-c2ncn(CCc3ccccc3Cl)c2-c2ccc(F)cc2)c1` [Example 124, 2-[1-[2-(2-chlorophenyl)ethyl]-5-(4-fluorophenyl)imidazol-4-yl]pyridine-4-carboxylic acid] were at most 100 nM and 100 to 1000 nM. On to `Clc1ccc(Cn2cnc(-c3cc(-c4nn[nH]n4)ccn3)c2)cc1` [Example 131, 2-[1-[(4-chlorophenyl)methyl]imidazol-4-yl]-4-(2H-tetrazol-5-yl)pyridine], for which the half-inhibitory concentration (IC50) against FBXL10 is at most 100 nM; at JMJD2C, 1000 to 10000 nM. The corresponding values for `CC(C)COc1ccccc1Cn1cnc(-c2cc(-c3nn[nH]n3)ccn2)c1` [Example 153, 2-[1-[[2-(2-methylpropoxy)phenyl]methyl]imidazol-4-yl]-4-(2H-tetrazol-5-yl)pyridine] are 100 to 1000 nM and 1000 to 10000 nM. The corresponding values for `Cn1cnc(-c2cc(C(=O)O)ccn2)c1-c1cc(F)c(F)cc1OCC1CC1` [Example 121, 2-[5-[2-(cyclopropylmethoxy)-4,5-difluorophenyl]-1-methylimidazol-4-yl]pyridine-4-carboxylic acid] are at most 100 nM and 1000 to 10000 nM. Regarding `CC(c1ccccc1Cl)n1cnc(-c2cc(-c3nn[nH]n3)ccn2)c1` (stereo not shown) [Example 157, 2-[1-[1-(2-chlorophenyl)ethyl]imidazol-4-yl]-4-(2H-tetrazol-5-yl)pyridine], the IC50 is at most 100 nM against FBXL10 and 1000 to 10000 nM on JMJD2C. With `Cn1cnc(-c2cc(-c3nn[nH]n3)ccn2)c1-c1ccc(F)c(C(=O)NCc2ccccc2)c1` [Example 65, N-benzyl-2-fluoro-5-[3-methyl-5-[4-(2H-tetrazol-5-yl)pyridin-2-yl]imidazol-4-yl]benzamide], the results for the IC50 on FBXL10 and on JMJD2C were at most 100 nM and 1000 to 10000 nM, respectively. As to `Cc1ccc(OCC2CC2)c(-c2c(-c3cc(C(=O)O)ccn3)ncn2C)c1` [Example 123, 2-[5-[2-(cyclopropylmethoxy)-5-methylphenyl]-1-methylimidazol-4-yl]pyridine-4-carboxylic acid], the values for the IC50 against FBXL10 and on JMJD2C were 100 to 1000 nM and 1000 to 10000 nM, respectively.

With `O=C(O)c1ccnc(-c2ncn(CC3CC3)c2-c2ccc(Cl)cc2)c1` [Example 126, 2-[5-(4-chlorophenyl)-1-(cyclopropylmethyl)imidazol-4-yl]pyridine-4-carboxylic acid], the figures for the IC50 against FBXL10 and on JMJD2C were at most 100 nM and 1000 to 10000 nM, respectively. Taken in the same sequence, the figures for `c1ccc2c(c1)CC(Cn1cnc(-c3cc(-c4nn[nH]n4)ccn3)c1)C2` [Example 147, 2-[1-(2,3-dihydro-1H-inden-2-ylmethyl)imidazol-4-yl]-4-(2H-tetrazol-5-yl)pyridine] were at most 100 nM and 1000 to 10000 nM. As for `Clc1cccc(Cl)c1Cn1cnc(-c2cc(-c3nn[nH]n3)ccn2)c1` [Example 151, 2-[1-[(2,6-dichlorophenyl)methyl]imidazol-4-yl]-4-(2H-tetrazol-5-yl)pyridine], the concentration for half-maximal inhibition (IC50) against FBXL10 was at most 100 nM; at JMJD2C, 1000 to 10000 nM. The corresponding values for `Cn1cnc(-c2cc(-c3nn[nH]n3)ccn2)c1-c1ccc(F)c(OCc2ccccc2)c1` [Example 160, 2-[5-(4-fluoro-3-phenylmethoxyphenyl)-1-methylimidazol-4-yl]-4-(2H-tetrazol-5-yl)pyridine] are at most 100 nM and 1000 to 10000 nM.

In the case of `CC(=O)OCn1nnc(-c2ccnc(-c3ncn(Cc4ccccc4Cl)c3-c3ccc(F)cc3)c2)n1` [Example 138, [5-[2-[1-[(2-chlorophenyl)methyl]-5-(4-fluorophenyl)imidazol-4-yl]pyridin-4-yl]tetrazol-2-yl]methyl acetate], the IC50 at FBXL10 and on JMJD2C was 1000 to 10000 nM each time. With `Cn1cnc(-c2cc(-c3nn[nH]n3)ccn2)c1-c1ccc(Cl)c(OCc2ccccc2)c1` [Example 161, 2-[5-(4-chloro-3-phenylmethoxyphenyl)-1-methylimidazol-4-yl]-4-(2H-tetrazol-5-yl)pyridi], on FBXL10, the IC50 was at most 100 nM. In the case of `c1ccc2c(c1)CCC(Cn1cnc(-c3cc(-c4nn[nH]n4)ccn3)c1)C2` (stereo not shown) [Example 146, 2-[1-(1,2,3,4-tetrahydronaphthalen-2-ylmethyl)imidazol-4-yl]-4-(2H-tetrazol-5-yl)pyridine], the IC50 at FBXL10 was at most 100 nM; at JMJD2C, 1000 to 10000 nM. Turning to `Clc1cccc(Cn2cnc(-c3cc(-c4nn[nH]n4)ccn3)c2)c1` [Example 130, 2-[1-[(3-chlorophenyl)methyl]imidazol-4-yl]-4-(2H-tetrazol-5-yl)pyridine], the IC50 at FBXL10 was at most 100 nM; against JMJD2C, 1000 to 10000 nM. As for `Clc1cccc(Cn2cnc(-c3cc(-c4nn[nH]n4)ccn3)c2)c1Cl` [Example 158, 2-[1-[(2,3-dichlorophenyl)methyl]imidazol-4-yl]-4-(2H-tetrazol-5-yl)pyridine], the values for the half-maximal inhibitory concentration (IC50) against FBXL10 and on JMJD2C were at most 100 nM and 1000 to 10000 nM, respectively. For `CC(=O)OCn1nnc(-c2ccnc(-c3cn(Cc4ccccc4Cl)cn3)c2)n1` [Example 167, (5-(2-(1-(2-chlorobenzyl)-1H-imidazol-4-yl)pyridin-4-yl)-2H-tetrazol-2-yl)methyl acetate], the IC50 lay within 100 to 1000 nM against FBXL10 and 1000 to 10000 nM on JMJD2C. Turning to `CC(C)(C)C(=O)OCn1nnc(-c2ccnc(-c3cn(Cc4ccccc4Cl)cn3)c2)n1` [Example 166, (5-(2-(1-(2-chlorobenzyl)-1H-imidazol-4-yl)pyridin-4-yl)-2H-tetrazol-2-yl)methyl pivalate], the half-inhibitory concentration (IC50) against FBXL10 and against JMJD2C was 1000 to 10000 nM in each case.

Consider `Fc1ccc(-c2c(-c3cc(-c4nn[nH]n4)ccn3)ncn2CC(F)(F)F)cc1` [Example 134, 2-[5-(4-fluorophenyl)-1-(2,2,2-trifluoroethyl)imidazol-4-yl]-4-(2H-tetrazol-5-yl)pyridine], for which the values for the IC50 against FBXL10 and on JMJD2C were at most 100 nM and 1000 to 10000 nM, respectively. In the case of `Cn1cnc(-c2cc(-c3nn[nH]n3)ccn2)c1-c1ccc(F)cc1OCc1ccccc1` [Example 148, 2-[5-(4-fluoro-2-phenylmethoxyphenyl)-1-methylimidazol-4-yl]-4-(2H-tetrazol-5-yl)pyridine], the concentration for half-maximal inhibition (IC50) is at most 100 nM on FBXL10 and 1000 to 10000 nM on JMJD2C. Consider `Cn1cnc(-c2cc(C(=O)O)ccn2)c1-c1c(F)cccc1OCC1CC1` [Example 122, 2-[5-[2-(cyclopropylmethoxy)-6-fluorophenyl]-1-methylimidazol-4-yl]pyridine-4-carboxylic acid], for which the values for the IC50 at FBXL10 and against JMJD2C were at most 100 nM and 1000 to 10000 nM, respectively. The corresponding values for `Cn1cnc(-c2cc(-c3nn[nH]n3)ccn2)c1-c1ccc(F)c(O)c1` [Example 162, 2-fluoro-5-[3-methyl-5-[4-(2H-tetrazol-5-yl)pyridin-2-yl]imidazol-4-yl]phenol] are at most 100 nM and 1000 to 10000 nM. Taken in the same sequence, the figures for `Clc1ccc(-c2c(-c3cc(-c4nn[nH]n4)ccn3)ncn2CC2CC2)cc1` [Example 136, 2-[5-(4-chlorophenyl)-1-(cyclopropylmethyl)imidazol-4-yl]-4-(2H-tetrazol-5-yl)pyridine] were at most 100 nM and 1000 to 10000 nM. Taken in the same sequence, the figures for `Cn1cnc(-c2cc(-c3nn[nH]n3)ccn2)c1-c1ccc(F)c(C(=O)Nc2ccccc2)c1` [Example 163, 2-fluoro-5-[3-methyl-5-[4-(2H-tetrazol-5-yl)pyridin-2-yl]imidazol-4-yl]-N-phenylbenzamide] were 100 to 1000 nM and 1000 to 10000 nM. Regarding `O=C(O)c1ccnc(-c2ncn(CC3CC3)c2-c2ccc(F)cc2)c1` [Example 125, 2-[1-(cyclopropylmethyl)-5-(4-fluorophenyl)imidazol-4-yl]pyridine-4-carboxylic acid], the IC50 was at most 100 nM at FBXL10 and 100 to 1000 nM at JMJD2C. As to `O=C(O)c1ccnc(-c2ncn(Cc3ccccc3Cl)c2-c2ccc(F)cc2)c1` [Example 127, 2-[1-[(2-chlorophenyl)methyl]-5-(4-fluorophenyl)imidazol-4-yl]pyridine-4-carboxylic acid], the values for the 50% inhibitory concentration (IC50) against FBXL10 and against JMJD2C were at most 100 nM and 1000 to 10000 nM, respectively.

In the case of `Fc1ccc(-c2c(-c3cc(-c4nn[nH]n4)ccn3)ncn2CCc2ccccc2Cl)cc1` [Example 132, 2-[1-[2-(2-chlorophenyl)ethyl]-5-(4-fluorophenyl)imidazol-4-yl]-4-(2H-tetrazol-5-yl)pyridine], the IC50 at FBXL10 is at most 100 nM; on JMJD2C it was 1000 to 10000 nM. Taken in the same sequence, the figures for `O=C(O)c1ccnc(-c2cn(Cc3cccc(C(F)(F)F)c3)cn2)c1` [Example 117, 2-[1-[[3-(trifluoromethyl)phenyl]methyl]imidazol-4-yl]pyridine-4-carboxylic acid] were at most 100 nM and 100 to 1000 nM. In the case of `c1ccc2c(Cn3cnc(-c4cc(-c5nn[nH]n5)ccn4)c3)cccc2c1` [Example 155, 2-[1-(naphthalen-1-ylmethyl)imidazol-4-yl]-4-(2H-tetrazol-5-yl)pyridine], the results for the 50% inhibitory concentration (IC50) against FBXL10 and against JMJD2C were at most 100 nM and 1000 to 10000 nM, respectively. The corresponding values for `CCOc1ccccc1CCn1cnc(-c2cc(-c3nn[nH]n3)ccn2)c1` [Example 128, 2-[1-[2-(2-ethoxyphenyl)ethyl]imidazol-4-yl]-4-(2H-tetrazol-5-yl)pyridine] are at most 100 nM and 1000 to 10000 nM.
